Test results from patent publication US20240053326A1, “TESTING COLON CANCER DRUGS FOR IMMUNOMODULATORY EFFECTS” (BROWN UNIVERSITY, priority 2022, published 2024).

System: HCT-116, HT-29, and KM12C colon cancer cell lines
Assay: Cytokinome (cytokine, chemokine, growth factor) profiling of cell culture supernatant after small-molecule treatment, Luminex 200
Assay type: cell-based, human
Details: for decreases in VEGF: 48 h treatment at IC-10 to IC-90, slope of linear regression, count of drug/cell line groups (HCT-116, HT-29, KM12C) with analyte among top five most down-regulated
Description: We designed a high-throughput custom multiplex cytokine, chemokine, and growth factor profiling panel based on both pro- and anti-inflammatory markers, as well as cytokines and chemokines involved in the recruitment and activation of immune cells such as natural killer (NK) and T cells. Cell lines were treated with the drug panel and cell culture supernatants were analyzed using Luminex 200 technology (FIG. 2). Cell lines were treated at differing concentrations (IC-10, IC-30, IC-50, IC-70, and IC-90) to determine dose-response effects for each small-molecule. It is important to emphasize that the panel was designed to analyze soluble factors that are secreted or shed by tumor cells post-treatment with drug.
Cells were plated at 3.5×10^4 cells in a 48 well plate (Thermo Fisher Scientific, Waltham, MA, USA) in complete medium and incubated at 37° C. with 5% CO2. At 24 hours after plating, almost all the tumor cells were adherent to the bottom of the flask and the complete medium was replaced with drug-containing medium. Subsequently, the culture supernatants were collected after 48 hours of incubation and were frozen at −80° C. until the measurement of cytokines was performed. The day of analysis, samples were thawed and centrifuged to remove cellular debris.
An R&D systems Human Premixed Multi-Analyte Kit (R&D Systems, Inc., Minneapolis, MN) was run on a Luminex 200 Instrument (LX200-XPON-RUO, Luminex Corporation, Austin, TX) according to the manufacturer's instructions. Cell culture supernatant levels of TNF-alpha, IL-6, IL-8/CXCL8, Ferritin, IFN-beta, IL-10, CCL2/JE/MCP-1, VEGF, CXCL13/BLC/BCA-1, IFN-gamma, CCL20/MIP-3 alpha, CCL3/MIP-1 alpha, CCL22/MDC, CCL4/MIP-1 beta, IL-4, IL-17/IL-17a, TRAIL R2/TNFRSF10B, GM-CSF, CXCL5/ENA-78, CXCL9/MIG, G-CSF, CXCL11/I-TAC, Granzyme B, CCL5/RANTES, Prolactin, IFN-alpha, CXCL14/BRAK, IL-12/IL-23 p40, CXCL10/IP-10/CRG2, CCL7/MCP-3/MARC, IL-7, CCL8/MCP-2, TRANCE/TNFSF11/RANK L, IL-15, TRAIL R3/TNFRSF10C, CCL11/Eotaxin, IL-18/IL-1F4, TRAIL/TNFSF10, IL-21, and C-Reactive Protein/CRP were measured.
A quantitative analysis with 6 standards and a minimum of 50 counts per bead region was used with the Luminex to generate analyte values reported as picograms/milliliter (pg/mL). Cytokine concentrations less than the lower limit of detection for each particular cytokine were recoded as zero. Cytokines without detectable expression levels were removed from further analysis of each cell line. Each drug was tested at different inhibitory concentrations (IC-10, IC-30, IC-50, IC-70, and IC-90), and these varying concentrations were used to measure a dose-response effect on cytokine expression. Cytokine dose-response effect was modeled by simple linear regression for each drug. The slopes of the linear regressions were compared. Data analysis and visualization were generated using R (R Development Core Team, 2020).

[1] = 48 h, IC-10 to IC-90, regression slope, count of drug/cell line groups, top five most down-regulated
[2] = 48 h, IC-10 to IC-90, regression slope, count of drug/cell line groups, top five most up-regulated

SMILES | decreases in CCL3/MIP-1 alpha [1] | decreases in CXCL9/MIG [1] | decreases in IL-8/CXCL8 [1] | increases in CCL5/RANTES [2] | increases in IL-18/IL-1F4 [2] | increases in Prolactin [2] | decreases in VEGF | decreases in CXCL5/ENA-78 [1] | increases in CXCL14/BRAK [2] | decreases in CXCL14/BRAK [1] | increases in CXCL5/ENA-78 [2] | increases in IL-8/CXCL8 [2] | decreases in CXCL13/BLC/BCA-1 [1] | increases in sTRAIL-R3 [2]
O=C(Nc1cnn2ccc(N3CCC[C@@H]3c3cc(F)ccc3F)nc12)N1CC[C@H](O)C1 [Larotrectinib] | 2 out of 3 | 3 out of 3 | 2 out of 3 | 2 out of 3 | 2 out of 3 | 2 out of 3 | 3 out of 3 | – | – | – | – | – | – | –
CNC(=O)c1cc(Oc2ccc(NC(=O)Nc3ccc(Cl)c(C(F)(F)F)c3)c(F)c2)ccn1 [Regorafenib] | 2 out of 3 | 3 out of 3 | 3 out of 3 | – | – | 2 out of 3 | 3 out of 3 | 2 out of 3 | 2 out of 3 | – | – | – | – | –
COc1ccc(CN2C3CC2CN(c2ccc(-c4cc(OCC(C)(C)O)cn5ncc(C#N)c45)cn2)C3)cn1 [Selpercatinib] | 2 out of 3 | – | – | – | – | 2 out of 3 | 3 out of 3 | – | – | 2 out of 3 | 3 out of 3 | 2 out of 3 | – | –
C[C@@H](Oc1cc(-c2cnn(C3CCNCC3)c2)cnc1N)c1c(Cl)ccc(F)c1Cl [Crizotinib] | – | 2 out of 3 | – | – | – | 2 out of 3 | 3 out of 3 | – | 2 out of 3 | – | – | 2 out of 3 | 2 out of 3 | –
Cn1cc(C2=C(c3coc4ccc(F)cc34)C(=O)NC2=O)c2cc3c(cc21)OCO3 [9-ING-41] | 2 out of 3 | 3 out of 3 | – | – | – | – | 3 out of 3 | – | 3 out of 3 | – | – | 2 out of 3 | – | 2 out of 3
